Read-outs that look alike come from different tables or passages of the source.
Columns and labels:
Test in all cases: Etest MIC of indicator carbapenems on MH II agar without/with PMBN
Assay type in all cases: cell-based
[1] = system: E. aerogenes 1204050 (membrane impermeability); settings: in µg/mL
Description: (§1) The determinations of antibiotic MIC were carried out on solid culture media with the Etest® method. To do this, Etest® strips (bioMérieux, France) were used: • Etest® Imipenem IM 32, and • Etest® Ertapenem ETP 32, and also solid culture media, differing from one another by virtue of their non-inhibitory concentrations of PMBN.
(§2) These solid culture media are prepared in Petri dishes (0=145 mm; V=50 ml) on a base of MH II Agar (Becton Dickinson®, United States), more or less supplemented with PMBN. The PMBN concentrations range from 0 up to concentrations equivalent to one fifth of the MIC of PMBN (⅕ MICPMBN).
(§3) Using a swab and the Retro C80™ rota-plater (bioMérieux, France), the culture media were inoculated with the bacteria, originating from an inoculum of 0.5 McFarland, prepared in 0.85% NaCl solution from colonies subcultured the day before on MH II agar.
(§4) The various Etest® strips are then deposited on the surface of the culture media. After 16 to 20 hours of incubation at 35° C., the MICS were read.
(§5) By way of indicator carbapenems according to the invention, in addition to imipenem (IM) and ertapenem (ETP), meropenem (MP) was also tested. Like the other two antibiotics, meropenem was used in the form of Etest® strips (Etest® Meropenem MP 32 from the company bioMérieux, France).
(§6) The methods used to prepare the new culture media and to carry out the antibiotic-sensitivity tests are identical to those described above.

[2] = system: E. cloacae 1204053 (membrane impermeability)
Description: as §1, §2, §3, §4, §5, §6

[3] = system: E. cloacae 1204058 (membrane impermeability); settings: in µg/mL
Description: as §1, §2, §3, §4, §5, §6

E. coli SAB 100 (porin−) = settings: Escherichia coli
Description: as §1, §2, §3, §4, §5, §6

[4] = system: K. pneumoniae 1108003 (KPC-3 producer)
Description: as §1, §2, §3, §4, §5, §6

[5] = system: K. pneumoniae 1204039 (membrane impermeability)
Description: as §1, §2, §3, §4, §5, §6

E. aerogenes 1204048 = settings: in µg/mL
Description: as §1, §2, §3, §4
(§7) To do this, imipenem and ertapenem were used as indicator carbapenems. Non-inhibitory concentrations of PMBN, equivalent to concentrations of one tenth ( 1/10), one eighth (⅛) and one fifth (⅕) of the MIC of PMBN, were applied.
(§8) In the light of the MICPMBN values previously identified, very predominantly much higher than 300 μg/ml, the following standard concentrations were retained and applied to the bacterial strains to be tested: 50, 100, 150, 200 and 300 μg/ml.
as §5, §6

E. aerogenes 9203076 = system: E. aerogenes 9203076
Description: as §1, §2, §3, §4, §7, §8, §5, §6

E. aerogenes 9306071 = system: E. aerogenes 9306071
Description: as §1, §2, §3, §4, §7, §8, §5, §6

E. cloacae 9402034 = system: E. cloacae 9402034
Description: as §1, §2, §3, §4, §7, §8, §5, §6

E. coli 1204043 = system: E. coli 1204043
Description: as §1, §2, §3, §4, §7, §8, §5, §6

K. pneumoniae 1002015 = system: K. pneumoniae 1002015
Description: as §1, §2, §3, §4, §7, §8, §5, §6

K. pneumoniae 1204034 = system: K. pneumoniae 1204034
Description: as §1, §2, §3, §4, §7, §8, §5, §6

Measured: MIC

C[C@@H](O)[C@H]1C(=O)N2C(C(=O)O)=C(SCCN=CN)C[C@H]12 [IM, imipenem]
0.5 µg/mL: E. coli SAB 100 (porin−); [PMBN] 0 | K. pneumoniae 1002015; K. pneumoniae 1002015, [PMBN] MIC/10 | K. pneumoniae 1002015; Klebsiella pneumoniae, 1002015, K. pneumoniae 1002015 (porin−), [PMBN] 0, Table 4, read-out: MIC | K. pneumoniae 1204034; K. pneumoniae 1204034 (membrane impermeability), [PMBN] 100, Table 4a | K. pneumoniae 1204034; K. pneumoniae 1204034, [PMBN] MIC/5 | K. pneumoniae 1204034; K. pneumoniae 1204034, [PMBN] MIC/8 | K. pneumoniae 1204034; K. pneumoniae 1204034, [PMBN] MIC/10
1: E. aerogenes 1204048; E. aerogenes 1204048, [PMBN] MIC/8 | E. coli 1204043; E. coli 1204043, [PMBN] MIC/5, in µg/mL | E. coli 1204043; E. coli 1204043, [PMBN] MIC/8, in µg/mL
6: E. aerogenes 1204048; E. aerogenes 1204048 (membrane impermeability), [PMBN] 200, Table 4a
3-6: E. coli 1204043; E. coli 1204043 (membrane impermeability), [PMBN] 200, Table 4a, in µg/mL
3: [3]; [PMBN] 300, Table 4a | E. aerogenes 1204048; E. aerogenes 1204048 (membrane impermeability), [PMBN] 300, Table 4a | E. coli 1204043; E. coli 1204043 (membrane impermeability), [PMBN] 300, Table 4a, in µg/mL
0.19 µg/mL: E. coli SAB 100 (porin−); [PMBN] 150 μg/ml | E. coli SAB 100 (porin−); [PMBN] 200 μg/ml | K. pneumoniae 1204034; K. pneumoniae 1204034 (membrane impermeability), [PMBN] 300, Table 4a
8 µg/mL: [4]; [PMBN] 100, Table 4a | E. aerogenes 9306071; E. aerogenes 9306071, [PMBN] 0, Table 3 | E. cloacae 9402034; E. cloacae 9402034 (membrane impermeability), [PMBN] 100, Table 4a | E. cloacae 9402034; E. cloacae 9402034, [PMBN] MIC/5 | E. cloacae 9402034; E. cloacae 9402034, [PMBN] MIC/8 | E. cloacae 9402034; E. cloacae 9402034, [PMBN] MIC/10
4 µg/mL: E. aerogenes 9306071; E. aerogenes 9306071, [PMBN] MIC/8 | E. aerogenes 9306071; E. aerogenes 9306071, [PMBN] MIC/10
6 µg/mL: [4]; [PMBN] 0, Table 4a | E. aerogenes 9203076; Klebsiella aerogenes, 9203076, E. aerogenes 9203076 (porin−), [PMBN] 0, Table 4, read-out: MIC | E. aerogenes 9306071; E. aerogenes 9306071 (membrane impermeability), [PMBN] 100, Table 4a
4: [3]; [PMBN] 200, Table 4a | E. aerogenes 9203076; E. aerogenes 9203076 (membrane impermeability), [PMBN] 200, Table 4a, in µg/mL | E. aerogenes 9203076; E. aerogenes 9203076 (membrane impermeability), [PMBN] 300, Table 4a, in µg/mL
>32: [1]; [PMBN] 0, Table 4a | [1]; [PMBN] 100, Table 4a | [1]; [PMBN] 200, Table 4a | [1]; [PMBN] 300, Table 4a | [3]; [PMBN] 0, Table 4a | E. aerogenes 1204048; E. aerogenes 1204048 (membrane impermeability), [PMBN] 0, Table 4a | E. coli 1204043; E. coli 1204043 (membrane impermeability), [PMBN] 0, Table 4a, in µg/mL
16: E. aerogenes 1204048; E. aerogenes 1204048, [PMBN] 0, Table 3 | E. aerogenes 9203076; E. aerogenes 9203076 (membrane impermeability), [PMBN] 100, Table 4a, in µg/mL
2 µg/mL: E. aerogenes 9306071; E. aerogenes 9306071 (membrane impermeability), [PMBN] 300, Table 4a | E. aerogenes 9306071; E. aerogenes 9306071, [PMBN] MIC/5 | K. pneumoniae 1002015; K. pneumoniae 1002015, [PMBN] 0, Table 3 | K. pneumoniae 1204034; K. pneumoniae 1204034, [PMBN] 0, Table 3 | K. pneumoniae 1204034; Klebsiella pneumoniae, 1204034, K. pneumoniae 1204034 (porin−), [PMBN] 0, Table 4, read-out: MIC
8: E. aerogenes 9203076; E. aerogenes 9203076 (membrane impermeability), [PMBN] 0, Table 4a, in µg/mL | E. aerogenes 9203076; E. aerogenes 9203076, [PMBN] 0, Table 3, in µg/mL | E. coli 1204043; E. coli 1204043, [PMBN] 0, Table 3, in µg/mL
3 µg/mL: [2]; [PMBN] 0, Table 4a | [2]; [PMBN] 100, Table 4a | [2]; [PMBN] 200, Table 4a | [2]; [PMBN] 300, Table 4a | E. aerogenes 9203076; Klebsiella aerogenes, 9203076, E. aerogenes 9203076 (porin−), [PMBN] 150 μg/ml, Table 4, read-out: MIC | E. aerogenes 9203076; Klebsiella aerogenes, 9203076, E. aerogenes 9203076 (porin−), [PMBN] 200 μg/ml, Table 4, read-out: MIC | E. aerogenes 9306071; E. aerogenes 9306071 (membrane impermeability), [PMBN] 200, Table 4a | K. pneumoniae 1204034; K. pneumoniae 1204034 (membrane impermeability), [PMBN] 0, Table 4a
16 µg/mL: E. cloacae 9402034; E. cloacae 9402034, [PMBN] 0, Table 3
1 µg/mL: E. coli 1204043; Escherichia coli, 1204043, E. coli 1204043 (porin−), [PMBN] 150 μg/ml, Table 4, read-out: MIC
24 µg/mL: E. coli 1204043; Escherichia coli, 1204043, E. coli 1204043 (porin−), [PMBN] 0, Table 4, read-out: MIC
0.5: E. aerogenes 1204048; E. aerogenes 1204048, [PMBN] MIC/5
12 µg/mL: [4]; [PMBN] 200, Table 4a | [4]; [PMBN] 300, Table 4a | E. aerogenes 9306071; E. aerogenes 9306071 (membrane impermeability), [PMBN] 0, Table 4a | E. cloacae 9402034; E. cloacae 9402034 (membrane impermeability), [PMBN] 200, Table 4a | E. cloacae 9402034; E. cloacae 9402034 (membrane impermeability), [PMBN] 300, Table 4a
12: [3]; [PMBN] 100, Table 4a | E. aerogenes 1204048; E. aerogenes 1204048 (membrane impermeability), [PMBN] 100, Table 4a
6-8: E. coli 1204043; E. coli 1204043 (membrane impermeability), [PMBN] 100, Table 4a, in µg/mL
> 32 µg/mL: E. cloacae 9402034; E. cloacae 9402034 (membrane impermeability), [PMBN] 0, Table 4a
0.25 µg/mL: E. coli SAB 100 (porin−); [PMBN] 100 μg/ml | E. coli 1204043; Escherichia coli, 1204043, E. coli 1204043 (porin−), [PMBN] 200 μg/ml, Table 4, read-out: MIC | K. pneumoniae 1002015; K. pneumoniae 1002015, [PMBN] MIC/5 | K. pneumoniae 1002015; K. pneumoniae 1002015, [PMBN] MIC/8 | K. pneumoniae 1002015; Klebsiella pneumoniae, 1002015, K. pneumoniae 1002015 (porin−), [PMBN] 200 μg/ml, Table 4, read-out: MIC
2: E. aerogenes 1204048; E. aerogenes 1204048, [PMBN] MIC/10 | E. aerogenes 9203076; E. aerogenes 9203076, [PMBN] MIC/5, in µg/mL | E. aerogenes 9203076; E. aerogenes 9203076, [PMBN] MIC/8, in µg/mL | E. aerogenes 9203076; E. aerogenes 9203076, [PMBN] MIC/10, in µg/mL | E. coli 1204043; E. coli 1204043, [PMBN] MIC/10, in µg/mL
0.38 µg/mL: E. coli SAB 100 (porin−); [PMBN] 50 μg/ml | [5]; [PMBN] 0, Table 4a | [5]; [PMBN] 100, Table 4a | [5]; [PMBN] 200, Table 4a | [5]; [PMBN] 300, Table 4a | K. pneumoniae 1002015; Klebsiella pneumoniae, 1002015, K. pneumoniae 1002015 (porin−), [PMBN] 150 μg/ml, Table 4, read-out: MIC | K. pneumoniae 1204034; K. pneumoniae 1204034 (membrane impermeability), [PMBN] 200, Table 4a | K. pneumoniae 1204034; Klebsiella pneumoniae, 1204034, K. pneumoniae 1204034 (porin−), [PMBN] 150 μg/ml, Table 4, read-out: MIC | K. pneumoniae 1204034; Klebsiella pneumoniae, 1204034, K. pneumoniae 1204034 (porin−), [PMBN] 200 μg/ml, Table 4, read-out: MIC
